Data taken from patent publication US8067395B2, “Inhibitors of tyrosine kinases and uses thereof” (Pharmacyclics, Inc., priority 2006, dated 2011).

Molecular target: Btk (Homo sapiens, UniProt Q06187)
Experiment: Btk TR-FRET kinase inhibition assay
Assay type: biochemical
Details: pH 7.4, ATP at the Km for the kinase, 1 μM peptide substrate, [Btk]total=0.5 nM, read-out: Btk-TRFRET (Ki)
Method: Suitable in vitro assays for measuring kinase activity and the inhibition thereof by compounds are known (e.g., see Kuzmic et al. Anal. Biochem. 2000, 286, 45-50).
The following protocol represents an assay for determination of inhibition of kinases under physiological conditions (pH 7.4). Kinase activity was determined using a time-resolved fluorescence resonance energy transfer (TR-FRET) methodology. Measurements were performed in a reaction volume of 50 μL using 96-well assay plates. Kinase enzyme, inhibitor, ATP (at the Km for the kinase), and 1 μM peptide substrate (Biotin-AVLESEEELYSSARQ-NH2) were incubated in a reaction buffer composed of 20 mM Tris, 50 mM NaCl, MgCl2 (5-25 mM depending on the kinase), 1 mM DTT, 0.1 mM EDTA, 0.01% bovine serum albumin, 0.005% Tween-20, and 10% DMSO at pH 7.4 for one hour. The reaction was quenched by the addition of 1.2 equivalents of EDTA (relative to Mg^2+) in 25 μL of 1× Lance buffer (Perkin-Elmer). Streptavidin-APC (Perkin-Elmer) and Eu-labeled p-Tyr100 antibody (Perkin-Elmer) in 1× Lance buffer were added in a 25 μL volume to give final concentrations of 100 nM and 2.5 nM, respectively, and the mixture was allowed to incubate for one hour. The TR-FRET signal was measured on a multimode plate reader with an excitation wavelength of 330 nm and detection wavelengths of 615 nm and 665 nm. Activity was determined by the ratio of the fluorescence at 665 nm to that at 615 nm. For each compound, enzyme activity was measured at various concentrations of compound. Negative control reactions were performed in the absence of inhibitor in replicates of six, and two no-enzyme controls were used to determine baseline fluorescence levels. Inhibition constants were obtained using the program BatchKi (Kuzmic et al. Anal. Biochem. 2000, 286, 45-50). IC50s were obtained according to this equation: IC50={Ki(app)/(1+[ATP]/Km^ATP)}+[E]total/2; for all kinases, [ATP]=Km^ATP, [Btk]total=0.5 nM and [Lck]total=6 nM.

Sequence of Btk (Q06187 whole entry): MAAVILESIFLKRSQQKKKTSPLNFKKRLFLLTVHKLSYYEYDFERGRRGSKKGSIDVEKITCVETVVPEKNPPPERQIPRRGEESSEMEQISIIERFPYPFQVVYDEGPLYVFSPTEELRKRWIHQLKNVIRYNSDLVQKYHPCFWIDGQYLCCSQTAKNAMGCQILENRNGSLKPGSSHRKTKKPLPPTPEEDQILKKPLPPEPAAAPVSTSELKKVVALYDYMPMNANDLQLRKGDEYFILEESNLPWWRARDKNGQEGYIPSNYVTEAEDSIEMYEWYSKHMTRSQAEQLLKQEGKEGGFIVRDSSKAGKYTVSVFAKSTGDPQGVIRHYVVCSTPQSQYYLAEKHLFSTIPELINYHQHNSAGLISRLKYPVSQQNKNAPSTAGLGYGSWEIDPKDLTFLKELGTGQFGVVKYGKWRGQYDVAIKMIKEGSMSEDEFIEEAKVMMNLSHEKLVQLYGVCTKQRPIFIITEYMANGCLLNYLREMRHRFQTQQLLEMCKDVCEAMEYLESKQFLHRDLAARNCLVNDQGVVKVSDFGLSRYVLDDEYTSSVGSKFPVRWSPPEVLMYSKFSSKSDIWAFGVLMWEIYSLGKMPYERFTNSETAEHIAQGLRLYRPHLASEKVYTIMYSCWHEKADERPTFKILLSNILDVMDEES

Ki	Structure (SMILES)
> 1000 nM	Cc1c(C(O)C(F)(F)c2cn(Cc3ccccc3)nn2)[nH]c(=O)c2c1ccc1nc(Nc3c(Cl)cccc3Cl)n(C)c12 (centres unmarked) [Compound 40, 2-(2,6-dichlorophenylamino)-1,6-dimethyl-7-[2,2-difluoro-1-hydroxy-2-(N-phenylmethyl-[1,2,3]triazol-4-yl)-ethyl]-1,8-dihydro-imidazo[4,5-h]isoquinolin-9-one]
100 to 1000 nM	CCC[C@@H](C=CS(=O)(=O)c1ccccc1)NC(=O)Cc1c(C)[nH]c(=O)c2c1ccc1nc(Nc3ccc(F)cc3C)n(C)c12 [Compound 51, (S)-2-(4-fluoro-2-methylphenylamino)-1,7-dimethyl-6-{N-[1-(phenylsulfonyl)hex-1-en-3-yl]-amino-2-oxoethyl}-1,8-dihydro-imidazo[4,5-h]isoquinolin-9-one]
